Patent US20080292723A1, “Bioactive acid agrichemical compositions and use thereof” (priority 2007, published 2008)

Legend:
[1] = system: Saccharomycetes Cerevisiae (Fleishmann's Bakers yeast); experiment: Yeast growth inhibition by turbidity; type: cell-based; conditions: Table 12, surfactant ~0.05 wt %, neat additive, Metal 0 ppm
Description: Saccharomycetes Cerevisiae was selected as a test organism as it is generally accepted in the industry as an indicator or surrogate organism for a wide variety of fungi. In each of these experiments, the same general procedure was followed unless otherwise indicated.
Experimental Detail: A growth medium was prepared by adding 10 grams of nutrient medium (Difco Sabouraud dextrose broth from BD of Franklin Lakes, N.J., USA) to 300 ml of distilled water. Fleishmann's Bakers yeast was then added to the growth medium while mixing using a magnetic stirrer until a uniform dispersion was obtained having an initial turbidity of between about 50 and 100 NTU as measured using a HF Instruments DRT 100B Turbidity Meter. […] The system/component to be evaluated was then added to the vial and intimately shaken to ensure a good, substantially homogeneous mixture. The turbidity of each mixture was then determined and the vial transferred to an incubator at 30° C. Each vial was periodically removed from the incubator and the mixture in the vials assessed for turbidity: the specific timing for such evaluation was as set forth in the discussion of the experiments and the accompanying tables. […]
In the tables below, the results are presented as the actual turbidity readings (NTU) with a sub-table presenting the change or delta in NTU values. […]

E. amylovora 153N = experiment: Fire blight on crabapples; type: in vivo, Snow Drift crabapple trees; conditions: for canker, in words / shoot blight incidence, in words: day 63
Description: A study of the bioefficacy of the various agrichemical compositions, including bioactive acid solutions and blends thereof with an antibiotic agrichemical, were evaluated to assess their bioefficacy against fire blight on crabapples. The study was conducted on 5 year old Snow Drift crabapple trees, with each of the compositions being applied to ten trees in two-subplots of five trees, four different times: at 100% bloom-day 1, a second application was made on day 4, a third on day 11 and a final treatment on day 19. The trees were inoculated with E. amylovora […] at a concentration of 4×10^6 cells per milliliter on day 1, following drying of the treatment, with the inoculation being repeated on day 13. Evaluation for fire blight was completed on 100 blossoms for each of the subplots on day 12, day 19 and day 27. Additionally, the incidence of shoot infection and the length of […] evaluated on day 63. The test compositions were prepared by forming solutions of the bioactive agents. Two different dilutions of the MI2 bioactive were evaluated, the first employing 94.46 ml/gallon (25 ml/l) of water (5 ppm of each metal) and the second 188.9 ml/gallon (50 ml/l) of water (10 ppm of each metal). […] Finally, copper hydroxide was diluted at a rate of 1 lb/gallon (119.8 g/l). Each of the compositions and blends were spray applied at a rate of 50 gallons (189.3 l) pre acre. The results are presented as the mean of the counts.

SMILES | T0 (turbidity) [1] | Shoot Incidence (E. amylovora 153N; Day 63, rate 5 lbs/a (2.27 kg/a), mean of counts) | canker, in words (E. amylovora 153N) | shoot blight incidence, in words (E. amylovora 153N)
CCCCCCCCCCCCOS(=O)(=O)[O-].[Na+] | 48 | – | – | –
[Cu+2].[OH-].[OH-] [copper hydroxide] | – | 1.0 | appeared to prevent canker | greatly reduced
[H]/N=C(/N)N[C@H]1[C@H](O)[C@@H](O)[C@H](O[C@@H]2O[C@@H](C)[C@](O)(C=O)[C@H]2O[C@@H]2O[C@@H](CO)[C@H](O)[C@@H](O)[C@@H]2NC)[C@@H](N/C(N)=N\[H])[C@@H]1O [streptomycin] | – | – | appeared to prevent canker | greatly reduced
